# Experimental data from ChEMBL document CHEMBL6114980, “Single or double lipid-modified ultra-short antimicrobial peptides for treating infections caused by resistant bacteria” (Eur J Med Chem, 2025).
# Active and inactive are the calls of the source. No cut-off for these calls is given here. Peptide text beside a SMILES is read from it. * marks the point of attachment. Lauroyl = CCCCCCCCCCCC(=O)*; Octanoyl = CCCCCCCC(=O)*
# How the values were obtained:
# Escherichia coli [1] = assay: Antibacterial activity against Escherichia coli assessed as reduction in survival bacterial growth in presence of MgCl2 measured after 18 to 24 hrs (reference value: 8 microM); format: functional; conditions: time 18-24 hrs
# [2] = Acute toxicity in male BALB/c mouse assessed increase in inflammatory cell infiltration at 100 to 130 mg/kg, ip measured after 7 days by H and E staining based analysis; format: organism-based; conditions: in vivo, 168 h, dose 100-130 mg/kg, time 7 day
# Cell membrane [3] = assay: Induction of outer membrane permeabilization in Escherichia coli assessed as increase in fluorescence intensity at 0.5 times MIC measured for 10 mins by fluorescence based NPN uptake assay
# Staphylococcus aureus [4] = assay: Synergistic antibacterial activity against methicillin-resistant Staphylococcus aureus assessed as fractional inhibitory in presence of streptomycin by checker board assay; format: functional
# Staphylococcus aureus [5] = assay: Antibacterial activity against Staphylococcus aureus assessed as reduction in survival bacterial growth in presence of FeCl3 measured after 18 to 24 hrs (reference value: 4 microM); format: functional; conditions: time 18-24 hrs
# [6] = Acute toxicity in male BALB/c mouse assessed distorted alveolar morphology at 100 to 130 mg/kg, ip measured after 7 days by H and E staining based analysis; format: organism-based; conditions: in vivo, 168 h, dose 100-130 mg/kg, time 7 day
# [7] = Acute toxicity in male BALB/c mouse assessed effect on edema in heart at 100 to 130 mg/kg, ip measured after 7 days by H and E staining based analysis; format: organism-based; conditions: in vivo, 168 h, dose 100-130 mg/kg, time 7 day
# Escherichia coli [8] = assay: Antibacterial activity against Escherichia coli assessed as reduction in survival bacterial growth in presence of NaCl measured after 18 to 24 hrs (reference value: 8 microM); format: functional; conditions: time 18-24 hrs
# Staphylococcus aureus [9] = assay: Antibacterial activity against Staphylococcus aureus assessed as reduction in survival bacterial growth in presence of KCl measured after 18 to 24 hrs (reference value: 4 microM); format: functional; conditions: time 18-24 hrs
# Staphylococcus aureus [10] = assay: Antibacterial activity against Staphylococcus aureus assessed as reduction in survival bacterial growth in presence of NaCl measured after 18 to 24 hrs (reference value: 4 microM); format: functional; conditions: time 18-24 hrs
# [11] = Acute toxicity in male BALB/c mouse assessed effect on edema in kidney at 100 to 130 mg/kg, ip measured after 7 days by H and E staining based analysis; format: organism-based; conditions: in vivo, 168 h, dose 100-130 mg/kg, time 7 day
# Staphylococcus aureus [12] = assay: Antibacterial activity against Staphylococcus aureus assessed as reduction in survival bacterial growth in presence of <= 2 ug/ml trypsin measured after1 hr by absorbance based analysis; format: functional, organism-based; conditions: time 1.0 hrs
# [13] = Acute toxicity in male BALB/c mouse assessed increase in interstitial space at 100 to 130 mg/kg, ip measured after 7 days by H and E staining based analysis; format: organism-based; conditions: in vivo, 168 h, dose 100-130 mg/kg, time 7 day
# Staphylococcus aureus [14] = assay: Antibacterial activity against Staphylococcus aureus 25923 at sub-MIC concentration measured after 15 passages in presence of rifampin; format: functional, organism-based
# Staphylococcus aureus [15] = assay: Antibacterial activity against Staphylococcus aureus assessed as reduction in survival bacterial growth in presence of ZnCl2 measured after 18 to 24 hrs (reference value: 4 microM); format: functional; conditions: time 18-24 hrs
# [16] = Acute toxicity in male BALB/c mouse assessed congestion at 100 to 130 mg/kg, ip measured after 7 days by H and E staining based analysis; format: organism-based; conditions: in vivo, 168 h, dose 100-130 mg/kg, time 7 day
# [17] = Acute toxicity in male BALB/c mouse assessed effect on edema in spleen at 100 to 130 mg/kg, ip measured after 7 days by H and E staining based analysis; format: organism-based; conditions: in vivo, 168 h, dose 100-130 mg/kg, time 7 day
# Staphylococcus aureus [18] = assay: Antibacterial activity against Staphylococcus aureus assessed as reduction in survival bacterial growth in presence of MgCl2 measured after 18 to 24 hrs (reference value: 4 microM); format: functional; conditions: time 18-24 hrs
# Staphylococcus aureus [19] = assay: Additive antibacterial activity against Staphylococcus aureus 25923 assessed as fractional inhibitory in presence of cephalothin by checker board assay; format: functional
# Escherichia coli [20] = assay: Antibacterial activity against Escherichia coli assessed as reduction in survival bacterial growth in presence <=0.2 ug/ml of trypsin measured after1 hr by absorbance based analysis; format: functional, organism-based; conditions: time 1.0 hrs
# Staphylococcus aureus [21] = assay: Additive antibacterial activity against methicillin-resistant Staphylococcus aureus 113 assessed as fractional inhibitory in presence of polymyxin B by checker board assay; format: functional
# Escherichia coli [22] = assay: Antibacterial activity against Escherichia coli 25922 at sub-MIC concentration measured after 15 passages in presence of rifampin; format: functional, organism-based
# Staphylococcus aureus [23] = assay: Synergistic antibacterial activity against methicillin-resistant Staphylococcus aureus 113 assessed as fractional inhibitory in presence of polymyxin B by checker board assay; format: functional
# Staphylococcus aureus [24] = assay: Antibacterial activity against Staphylococcus aureus assessed as reduction in survival bacterial growth in presence of ZnCl2 measured after 18 to 24 hrs (reference value: 8 microM); format: functional; conditions: time 18-24 hrs
# [25] = Acute toxicity in male BALB/c mouse assessed inflammatory cell infiltration in spleen at 100 to 130 mg/kg, ip measured after 7 days by H and E staining based analysis; format: organism-based; conditions: in vivo, 168 h, dose 100-130 mg/kg, time 7 day
# Staphylococcus aureus [26] = assay: Antibacterial activity against Staphylococcus aureus assessed as reduction in survival bacterial growth in presence of <=0.2 ug/ml trypsin measured after1 hr by absorbance based analysis; format: functional, organism-based; conditions: time 1.0 hrs
# [27] = Acute toxicity in male BALB/c mouse assessed inflammatory cell infiltration in liver at 100 to 130 mg/kg, ip measured after 7 days by H and E staining based analysis; format: organism-based; conditions: in vivo, 168 h, dose 100-130 mg/kg, time 7 day
# Escherichia coli [28] = assay: Antibacterial activity against Escherichia coli assessed as reduction in survival bacterial growth in presence <=0.02 ug/ml of trypsin measured after1 hr by absorbance based analysis; format: functional, organism-based; conditions: time 1.0 hrs
# [29] = Acute toxicity in male BALB/c mouse assessed partial hepatocyte necrosis at 100 to 130 mg/kg, ip measured after 7 days by H and E staining based analysis; format: organism-based; conditions: in vivo, 168 h, dose 100-130 mg/kg, time 7 day
# Staphylococcus aureus [30] = assay: Synergistic antibacterial activity against Staphylococcus aureus 25923 assessed as fractional inhibitory in presence of cephalothin by checker board assay; format: functional
# Staphylococcus aureus [31] = assay: Antibacterial activity against Staphylococcus aureus assessed as reduction in survival bacterial growth in presence of Mgcl2 measured after 18 to 24 hrs (reference value: 8 microM); format: functional; conditions: time 18-24 hrs
# Cell membrane [32] = assay: Induction of cytoplasmic membrane depolarization in Escherichia coli assessed as increase in fluorescence intensity at 0.5 to 2 times MIC measured for 10 mins by DiSC3-5 dye based fluorescence assay
# Cell membrane [33] = assay: Induction of outer membrane permeabilization in Escherichia coli assessed as increase in fluorescence intensity at 1 times MIC measured for 10 mins by fluorescence based NPN uptake assay
# Cell membrane [34] = assay: Induction of cytoplasmic membrane depolarization in Staphylococcus aureus assessed as increase in fluorescence intensity at 0.5 to 4 times MIC measured for 1 mins by DiSC3-5 dye based fluorescence assay
compound,measurement,setting,value
CCCCCCCCCCCC(=O)N[C@@H](CCCCN)C(=O)N[C@@H](CCCCN)C(=O)N[C@@H](Cc1c[nH]c2ccccc12)C(=O)N[C@@H](Cc1c[nH]c2ccccc12)C(N)=O (Lauroyl-KKWW-NH2),MIC,Escherichia coli [1],8 µM
same,Activity,[2],Toxic
same,Activity,Cell membrane [3],Active
same,fractional inhibitory concentration index (FICI),Staphylococcus aureus [4],0.375
same,MIC,Staphylococcus aureus [5],2 µM
same,Activity,[6],Toxic
same,Activity,[7],Non-toxic
same,MIC,Escherichia coli [8],8 µM
same,MIC,Staphylococcus aureus [9],4 µM
same,MIC,Staphylococcus aureus [10],4 µM
same,Activity,[11],Non-toxic
same,Activity,Staphylococcus aureus [12],Active
same,Activity,[13],Toxic
same,Activity,Staphylococcus aureus [14],Active
same,MIC,Staphylococcus aureus [15],4 µM
same,Activity,[16],Toxic
same,Activity,[17],Non-toxic
same,MIC,Staphylococcus aureus [18],4 µM
same,fractional inhibitory concentration index (FICI),Staphylococcus aureus [19],0.562
same,Activity,Escherichia coli [20],Active
same,fractional inhibitory concentration index (FICI),Staphylococcus aureus [21],0.625
same,Activity,Escherichia coli [22],Active
CCCCCCCC(=O)NCCCC[C@H](NC(=O)CCCCCCC)C(=O)N[C@@H](CCCCN)C(=O)N[C@@H](CCCCN)C(=O)N[C@@H](Cc1c[nH]c2ccccc12)C(=O)N[C@@H](Cc1c[nH]c2ccccc12)C(N)=O (Octanoyl-K(Octanoyl)KKWW-NH2),fractional inhibitory concentration index (FICI),Staphylococcus aureus [23],0.312
same,MIC,Staphylococcus aureus [24],8 µM
same,Activity,[25],Non-toxic
same,Activity,Staphylococcus aureus [26],Active
same,Activity,[27],Non-toxic
same,Activity,Escherichia coli [28],Active
same,Activity,[29],Non-toxic
same,fractional inhibitory concentration index (FICI),Staphylococcus aureus [30],0.5
same,MIC,Staphylococcus aureus [31],8 µM
same,Activity,Cell membrane [32],Active; Compound Showed Similar Effect As Quality Control Polymyxin B
same,Activity,Cell membrane [33],Active
same,Activity,Cell membrane [34],Active
